From patent publication US20250313563A1, “GLYCOGEN SYNTHASE KINASE 3 INHIBITORS AND USES THEREOF” (The Broad Institute, Inc., priority 2022, published 2025) come the findings set out here.

For assay [1], the target named is GSK3b (GST-full length GSK3b) (Homo sapiens (Human), UniProt P49841). As to the kind of experiment: GSK3b TR-FRET kinase assay. In kind it is biochemical. The gist of the method:
(§1)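 Compound was preincubated 30 min with 1 nM GST-GSK3 enzyme. Reaction ran 100 min at ambient temperature in Tris pH 7.5/MgCl2 with 200 nM biotinylated pS645-glycogen synthase 631-650 peptide and ATP (4 μM GSK3α, 2 μM GSK3b, or 1 mM). The EDTA-stopped reaction was read by TR-FRET (Tb-anti-pSer641/streptavidin-d2), and IC50s were fitted.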

Assay [2] has as its target GSK3α (GST-full length GSK3α) (Homo sapiens (Human), UniProt P49840). As to the kind of experiment: GSK3α TR-FRET kinase assay. Type of assay: biochemical. The gist of the method:
as §1
(In TR-FRET formats the signal depends on donor and acceptor labels being close together.)

The mark [3] stands for this setting: 1 nM GSK3b, 2 μM ATP, 30 minute preincubation, Table 16, read-out: GSK3-B TR-FRET BIOCHEMICAL (TR-FRET), IC50.
Setting [4] is: 1 nM GSK3α, 4 μM ATP, 30 minute preincubation, Table 16, read-out: GSK3-A TR-FRET BIOCHEMICAL (TR-FRET), IC50.
Where [5] appears, read: 1 nM GSK3b, 2 μM ATP, 30 minute preincubation, Table 16, read-out: GSK3-B TR-FRET BIOCHEMICAL (TR-FRET).
Where [6] appears, read: 1 nM GSK3α, 4 μM ATP, 30 minute preincubation, Table 16, read-out: GSK3-A TR-FRET BIOCHEMICAL (TR-FRET).
The mark [7] stands for this setting: read-out: GSK3-B (TR-FRET 1 mM ATP), GMean, IC50, 1 mM ATP, geometric mean.
Where [8] appears, read: read-out: GSK3-A (TR-FRET 1 mM ATP), GMean, IC50, 1 mM ATP, geometric mean.
[9] abbreviates: 1 nM GSK3b, 2 μM ATP, 30 minute preincubation, read-out: GSK3-B TR-FRET BIOCHEMICAL (TR-FRET), IC50.
Where [10] appears, read: 1 nM GSK3α, 4 μM ATP, 30 minute preincubation, read-out: GSK3-A TR-FRET BIOCHEMICAL (TR-FRET), IC50.

Like-named read-outs stand apart in the source and are kept apart here.

Sequence of GSK3b (GST-full length GSK3b) (P49841 whole entry): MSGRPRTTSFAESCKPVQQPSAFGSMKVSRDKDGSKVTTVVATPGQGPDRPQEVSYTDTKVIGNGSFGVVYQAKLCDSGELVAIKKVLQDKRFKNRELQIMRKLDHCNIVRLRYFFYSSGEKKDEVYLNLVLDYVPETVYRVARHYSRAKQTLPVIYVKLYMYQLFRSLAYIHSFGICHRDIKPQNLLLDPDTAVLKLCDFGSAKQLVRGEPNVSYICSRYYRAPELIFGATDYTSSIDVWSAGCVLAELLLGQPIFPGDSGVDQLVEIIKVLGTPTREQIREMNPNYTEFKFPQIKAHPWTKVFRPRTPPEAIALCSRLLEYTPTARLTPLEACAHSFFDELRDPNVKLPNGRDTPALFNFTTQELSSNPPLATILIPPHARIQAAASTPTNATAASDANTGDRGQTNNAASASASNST
Sequence of GSK3α (GST-full length GSK3α) (P49840 whole entry): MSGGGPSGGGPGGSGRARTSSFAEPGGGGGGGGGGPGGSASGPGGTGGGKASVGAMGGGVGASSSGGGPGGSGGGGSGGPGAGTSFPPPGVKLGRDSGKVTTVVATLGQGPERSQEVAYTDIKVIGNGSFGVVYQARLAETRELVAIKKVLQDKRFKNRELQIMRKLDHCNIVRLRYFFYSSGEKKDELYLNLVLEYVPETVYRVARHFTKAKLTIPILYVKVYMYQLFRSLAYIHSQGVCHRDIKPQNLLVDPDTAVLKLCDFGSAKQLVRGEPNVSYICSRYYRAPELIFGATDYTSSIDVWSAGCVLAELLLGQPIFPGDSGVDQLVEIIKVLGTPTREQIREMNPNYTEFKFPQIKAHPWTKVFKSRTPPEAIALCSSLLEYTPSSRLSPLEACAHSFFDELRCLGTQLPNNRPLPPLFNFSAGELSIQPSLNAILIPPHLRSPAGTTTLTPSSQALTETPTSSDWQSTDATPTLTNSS

As to `CCC1(c2cccc(-c3cc(C)ncc3F)c2)C2=C(CC(C)(C)CC2=O)Nc2n[nH]cc21` (centres unmarked) [Compound 927339], the figures for the IC50 in assay [1] (setting [3]) and in assay [2] (setting [4]) were above 5 µM and 1 to 5 µM, respectively.
Taken in the same sequence, the figures for `CC[C@@]1(c2cccc(-c3ccnc(C)c3F)c2)C2=C(CC(C)(C)CC2=O)Nc2n[nH]c(C)c21` [Compound 927340] were above 5 µM and above 5 µM.
Taken in the same sequence, the figures for `CCC1(c2cccc(NS(C)(=O)=O)c2)C2=C(CC(C)(C)CC2=O)Nc2n[nH]cc21` (centres unmarked) [Compound 927341] were 1 to 5 µM and 1 to 5 µM.
On to `CCC1(c2cccc(-c3ccnnc3)c2)C2=C(CC(C)(C)CC2=O)Nc2n[nH]cc21` (centres unmarked) [Compound 927342], for which the IC50 in assay [1] (setting [3]) and in assay [2] (setting [4]) was at most 0.1 µM in each case.
Take `CC1(C)CC(=O)C2=C(C1)Nc1n[nH]cc1C21CCCS(=O)(=O)CC1` (centres unmarked) [Compound 927343]: the results for the IC50 in assay [1] (setting [5]) and in assay [2] (setting [6]) were 0.1 to 1 µM and at most 0.1 µM, respectively.
For `CCC1(c2cccc(S(=O)(=O)C3CCOCC3)c2)C2=C(CC(C)(C)CC2=O)Nc2n[nH]cc21` (centres unmarked) [Compound 927344], the IC50 in assay [1] (setting [3]) and in assay [2] (setting [4]) was at most 0.1 µM each time.
On to `CCC1(c2cccc(-c3cc(C)ncc3F)c2)C2=C(CC(C)(C)CC2=O)Nc2n[nH]cc21` (centres unmarked) [Compound 927346], for which the IC50 was at most 0.1 µM in assay [1] (setting [3]), 1 to 5 µM in assay [1] (setting [7]), at most 0.1 µM in assay [2] (setting [4]) and at most 0.1 µM in assay [2] (setting [8]).
Turning to `CC[C@]1(c2cccc(-c3ccnn3C)c2)C2=C(CC(C)(C)NC2=O)Nc2n[nH]cc21` [Compound 927390], the IC50 is above 5 µM in assay [1] (setting [9]) and 0.1 to 1 µM in assay [2] (setting [10]).
On to `CCC1(c2cccc(N(C)c3nccc(OC)n3)c2)C2=C(CC(C)(C)CC2=O)Nc2n[nH]cc21` (centres unmarked) [Compound 929387], for which the IC50 in assay [1] (setting [3]) and in assay [2] (setting [4]) was at most 0.1 µM each time.
For the molecule `CCC1(c2cccc(C(F)(F)F)c2)C2=C(CN(Cc3ccccc3)C2=O)Nc2n[nH]cc21` (centres unmarked) [Compound 929388], the IC50 was 0.1 to 1 µM in assay [1] (setting [5]), above 5 µM in assay [1] (setting [7]) and 0.1 to 1 µM in assay [2] (setting [8]).
In the case of `CCn1nccc1-c1cccc(C2(CC)C3=C(CC(C)(C)CC3=O)Nc3n[nH]cc32)c1` (centres unmarked) [Compound 929398], the IC50 in assay [1] (setting [3]) and in assay [2] (setting [4]) was at most 0.1 µM in each case.
For the molecule `CCC1(c2cccc(-c3ccnn3C(C)C)c2)C2=C(CC(C)(C)CC2=O)Nc2n[nH]cc21` (centres unmarked) [Compound 929399], the IC50 in assay [1] (setting [3]) and in assay [2] (setting [4]) was at most 0.1 µM in each case.
As to `CCC1(c2cccc(-c3ccnn3CCC(C)C)c2)C2=C(CC(C)(C)CC2=O)Nc2n[nH]cc21` (centres unmarked) [Compound 929401], the IC50 in assay [1] (setting [3]) and in assay [2] (setting [4]) was at most 0.1 µM each time.
Take `CCC1(c2cccc(-c3cc(C)nn3C)c2)C2=C(CC(C)(C)CC2=O)Nc2n[nH]cc21` (centres unmarked) [Compound 929402]: the IC50 in assay [1] (setting [3]) is 0.1 to 1 µM; in assay [2] (setting [4]), at most 0.1 µM.
For `CC1(C)CC(=O)C2=C(C1)Nc1n[nH]cc1C21CN(Cc2ccccc2)C1` [Compound 929436] the same measures were above 5 µM and above 5 µM.
As to `CC1(C)CC(=O)C2=C(C1)Nc1n[nH]cc1C21CCN(S(=O)(=O)Cc2ccccc2)CC1` [Compound 929437], the IC50 is at most 0.1 µM in assay [1] (setting [9]); 0.1 to 1 µM in assay [1] (GSK3-B (TR-FRET 1 mM ATP), GMean, IC50, 1 mM ATP, geometric mean); at most 0.1 µM in assay [2] (setting [10]); at most 0.1 µM in assay [2] (GSK3-A (TR-FRET 1 mM ATP), GMean, IC50, 1 mM ATP, geometric mean).
On to `CC1(C)CC(=O)C2=C(C1)Nc1n[nH]cc1C21CN(Cc2ccccn2)C1` [Compound 929438], for which the IC50 in assay [1] (setting [3]) and in assay [2] (setting [4]) was above 5 µM in each case.
In the case of `Cn1cc(CN2CC3(C2)C2=C(CC(C)(C)CC2=O)Nc2n[nH]cc23)cn1` [Compound 929439], the IC50 in assay [1] (setting [3]) and in assay [2] (setting [4]) was above 5 µM each time.
Take `CC1(C)CC(=O)C2=C(C1)Nc1n[nH]cc1C21CN(S(=O)(=O)CC2CC2)C1` [Compound 929440]: the IC50 in assay [1] (setting [5]) and in assay [2] (setting [6]) was at most 0.1 µM throughout.
For `CC1(C)CC(=O)C2=C(C1)Nc1n[nH]cc1C21CN(CCc2ccccc2)C1` [Compound 929441], the IC50 in assay [1] (setting [3]) and in assay [2] (setting [4]) was above 5 µM throughout.
Regarding `CC[C@]1(c2cccc(N(C)C(=O)c3ccn(C)n3)c2)C2=C(CC(C)(C)CC2=O)Nc2n[nH]cc21` [Compound 929442], the figures for the IC50 in assay [1] (setting [3]) and in assay [2] (setting [4]) were 0.1 to 1 µM and at most 0.1 µM, respectively.
Taken in the same sequence, the figures for `CC[C@@]1(c2cccc(-c3ccnnc3)c2)C2=C(CC(C)(C)CC2=O)Nc2n[nH]cc21` [Compound 929443] were above 5 µM and above 5 µM.
For `CCc1cc(-c2cccc(C3(CC)C4=C(CC(C)(C)CC4=O)Nc4n[nH]cc43)c2)cc(CC)n1` (centres unmarked) [Compound 929445] the same measures were above 5 µM and 1 to 5 µM.
Consider `CC1(C)CC(=O)C2=C(C1)Nc1n[nH]cc1C21CN(C2CCCCC2)C1` [Compound 929446], for which the IC50 in assay [1] (setting [3]) and in assay [2] (setting [4]) was 1 to 5 µM each time.
In the case of `CCCS(=O)(=O)c1cccc(C2(CC)C3=C(CC(C)(C)CC3=O)Nc3n[nH]cc32)c1` (centres unmarked) [Compound 929447], the IC50 in assay [1] (setting [7]) was 0.1 to 1 µM; in assay [2] (setting [8]), at most 0.1 µM.
`CCN1CC2(C1)C1=C(CC(C)(C)CC1=O)Nc1n[nH]cc12` [Compound 929448]: the IC50 in assay [1] (setting [3]) and in assay [2] (setting [4]) was above 5 µM throughout.
For the molecule `CCC1(c2cccc(N3CCc4cnccc4C3)c2)C2=C(CC(C)(C)CC2=O)Nc2n[nH]cc21` (centres unmarked) [Compound 929449], the IC50 in assay [1] (setting [3]) and in assay [2] (setting [4]) was 1 to 5 µM throughout.
As for `CC[C@]1(c2cc(N(C)C(C)=O)ccc2F)C2=C(CC(C)(C)CC2=O)Nc2n[nH]c(C)c21` [Compound 929451], the IC50 in assay [1] (setting [3]) and in assay [2] (setting [4]) was above 5 µM each time.
On to `CC[C@]1(c2cccc(N(C)c3ccnc(F)c3)c2)C2=C(CC(C)(C)CC2=O)Nc2n[nH]cc21` [Compound 929453], for which the IC50 in assay [1] (setting [3]) is above 5 µM; in assay [2] (setting [4]), 1 to 5 µM.
Consider `CC[C@]1(c2cccc(-c3ccnnc3)c2)C2=C(CC(C)(C)CC2=O)Nc2n[nH]cc21` [Compound 929454], for which the IC50 is at most 0.1 µM in assay [1] (setting [3]), 1 to 5 µM in assay [1] (setting [7]), at most 0.1 µM in assay [2] (setting [4]) and 0.1 to 1 µM in assay [2] (setting [8]).
For the molecule `CC[C@@]1(c2cccc(N(C)C(=O)c3ccn(C)n3)c2)C2=C(CC(C)(C)CC2=O)Nc2n[nH]cc21` [Compound 929455], the IC50 in assay [1] (setting [3]) and in assay [2] (setting [4]) was above 5 µM each time.
As to `CCC1(c2cccc(C(F)(F)F)c2)C2=C(CCN(c3ccccc3)C2=O)Nc2n[nH]cc21` (centres unmarked) [Compound 929474], the results for the IC50 in assay [1] (setting [9]) and in assay [2] (setting [10]) were 0.1 to 1 µM and at most 0.1 µM, respectively.
In the case of `CC[C@]1(c2cccc(C(F)(F)F)c2)C2=C(CCN(c3ccccc3)C2=O)Nc2n[nH]cc21` [Compound 929475], the IC50 in assay [1] (setting [9]) and in assay [2] (setting [10]) was above 5 µM in each case.
Turning to `CC[C@@]1(c2cccc(C(F)(F)F)c2)C2=C(Nc3n[nH]cc31)[C@@H](C)N(Cc1ccccc1)C2=O` [Compound 930330], the IC50 was 0.1 to 1 µM in assay [1] (setting [9]) and at most 0.1 µM in assay [2] (setting [10]).
Taken in the same sequence, the figures for `CC[C@@]1(c2cccc(C(F)(F)F)c2)C2=C(Nc3n[nH]cc31)[C@H](C)N(Cc1ccccc1)C2=O` [Compound 930331] were 0.1 to 1 µM and at most 0.1 µM.
For `CC[C@]1(c2cccc(C(F)(F)F)c2)C2=C(Nc3n[nH]cc31)[C@H](C)N(Cc1ccccc1)C2=O` [Compound 930333] the same measures were above 5 µM and above 5 µM.
For the molecule `CC1(C)CC(=O)C2=C(C1)Nc1n[nH]cc1[C@@]21CCCc2ccccc21` [Compound 930565], the IC50 in assay [1] (setting [3]) was above 5 µM; in assay [2] (setting [4]), 1 to 5 µM.
For `CC1(C)CC(=O)C2=C(C1)Nc1n[nH]cc1[C@]21CCCc2ccccc21` [Compound 930566] the same measures were 0.1 to 1 µM and at most 0.1 µM.
Regarding `CCC1(c2cccc(-c3ccnc4c3CCCC4)c2)C2=C(CC(C)(C)CC2=O)Nc2n[nH]cc21` (centres unmarked) [Compound 932625], the IC50 in assay [1] (setting [3]) and in assay [2] (setting [4]) was at most 0.1 µM each time.
Turning to `CCC1(c2cccc(-c3ccnc(OC(C)C)c3)c2)C2=C(CC(C)(C)CC2=O)Nc2n[nH]cc21` (centres unmarked) [Compound 932626], the IC50 in assay [1] (setting [3]) and in assay [2] (setting [4]) was 0.1 to 1 µM in each case.
Consider `CCC1(c2cccc(-c3ccncc3OC)c2)C2=C(CC(C)(C)CC2=O)Nc2n[nH]cc21` (centres unmarked) [Compound 932627], for which the IC50 in assay [1] (setting [3]) and in assay [2] (setting [4]) was at most 0.1 µM each time.
Regarding `CCC1(c2cccc(-c3ccnc(OC)c3C)c2)C2=C(CC(C)(C)CC2=O)Nc2n[nH]cc21` (centres unmarked) [Compound 932628], the results for the IC50 in assay [1] (setting [3]) and in assay [2] (setting [4]) were 0.1 to 1 µM and at most 0.1 µM, respectively.
Taken in the same sequence, the figures for `CCC1(c2cccc(-c3ccnc(OC(F)F)c3)c2)C2=C(CC(C)(C)CC2=O)Nc2n[nH]cc21` (centres unmarked) [Compound 932629] were 0.1 to 1 µM and at most 0.1 µM.
Taken in the same sequence, the figures for `CCC1(c2cccc(-c3cc(OC)ncc3F)c2)C2=C(CC(C)(C)CC2=O)Nc2n[nH]cc21` (centres unmarked) [Compound 932630] were at most 0.1 µM and at most 0.1 µM.
